From the OligoGym collection
Values joined by “and” are separate entries in the source; they are usually repeats but may differ in a detail not shown here. Identical values can stand only once. After the bases stand the sugars from the 5' end (letter, count) and the backbone: PS all phosphorothioate, else s phosphorothioate and o phosphodiester by linkage. Methylation of C is not given here. e = 2'-O-(2-methoxyethyl) (MOE); d = 2'-deoxy (DNA)

Molecular target: DGAT2
Settings: ASO

Sequence	target mRNA inhibition (HepG2, 2.5 µM)	target mRNA inhibition (HepG2, 10 µM)	target mRNA inhibition (HepG2, 0.12 µM)
TCCTATCAGTTAGCAGTGCA (sugars e5 d10 e5, PS)	81% and 68%	86% and 83%	
TCCTGGTGGTCAGCAGGTTG (sugars e5 d10 e5, PS)			58%
TCGGAGGAGAAGAGGCCTCG (sugars e5 d10 e5, PS)			60%
TCTCATCAAGAGATAACAGA (sugars e5 d10 e5, PS)			6%
TCTGGACCCATCGGCCCCAG (sugars e5 d10 e5, PS)			20%
TCTTTGAAAGCAAATAGTCT (sugars e5 d10 e5, PS)			40%
TGACCTGTAGCTGCTTTTCC (sugars e5 d10 e5, PS)			35%
TGAGTAAGGGTATTCTGCTC (sugars e5 d10 e5, PS)	80% and 72%	93% and 91%	
TGAGTAGTCAAAGGTGGCTT (sugars e5 d10 e5, PS)			30%
TGATAGCATTGCCACTCCCA (sugars e5 d10 e5, PS)			64%
TGATCTCATCAAGAGATAAC (sugars e5 d10 e5, PS)			17%
TGATTCTTACCTGCAATGAG (sugars e5 d10 e5, PS)			22%
TGCACCTTGTATTAAATACT (sugars e5 d10 e5, PS)	76% and 65%	93% and 87%	
TGCCAATGCCTAGGTCACAG (sugars e5 d10 e5, PS)	78% and 87%	87% and 91%	
TGCTCAGTTCTTCCAACCAG (sugars e5 d10 e5, PS)	86% and 79%	93% and 94%	
TGCTTATCCTTGAGGGTCTC (sugars e5 d10 e5, PS)	64%	84%	
TGGAACTTCTTCTGGACCCA (sugars e5 d10 e5, PS)			43%
TGGACAAGTCCTGCCCATCT (sugars e5 d10 e5, PS)			72%
TGGACCCATCGGCCCCAGGA (sugars e5 d10 e5, PS)			52%
TGGAGTAGGGCACCAGCCCC (sugars e5 d10 e5, PS)			28%
TGGATAGTCGATTTACCAGA (sugars e5 d10 e5, PS)	62%	90%	
TGGCACTAAGCTAGGCACAC (sugars e5 d10 e5, PS)			62%

Sequence	target mRNA inhibition (HepG2, 2.5 µM)	target mRNA inhibition (HepG2, 10 µM)	target mRNA inhibition (HepG2, 0.12 µM)
TGGTGGTTGCAATGTTGCCA (sugars e5 d10 e5, PS)	88% and 80%	92% and 91%	
TGGTTGCAATGTTGCCATCA (sugars e5 d10 e5, PS)	94% and 78%	94% and 93%	
TGTAATGGTTTAGCAAAATT (sugars e5 d10 e5, PS)			26%
TGTCCTTATCAAAATCCCTC (sugars e5 d10 e5, PS)			38%
TGTGATGACTTCCCAGGGTC (sugars e5 d10 e5, PS)	85%	76%	
TGTGTTCCAGTCAAACACCA (sugars e5 d10 e5, PS)			23%
TTAGCTCTCAGTGAAGCTGG (sugars e5 d10 e5, PS)	93%	82%	
TTAGGCATGCTTCCTCCCAC (sugars e5 d10 e5, PS)	78%	68%	
TTCCATTTTTTACCCAACCT (sugars e5 d10 e5, PS)	57%	93%	
TTCCTTTGAAATCCAATGCA (sugars e5 d10 e5, PS)	63%	86%	
TTCTTCTGGACCCATCGGCC (sugars e5 d10 e5, PS)			44%
TTGCCACTCCCATTCTTTGA (sugars e2 d13 e5, PS)			57%
TTGCCACTCCCATTCTTTGA (sugars e3 d14 e3, PS)			59%
TTGCGGTTCCGCAGGGTGAC (sugars e5 d10 e5, PS)			70%
TTGTCCTAGTGCCCCAGGGA (sugars e5 d10 e5, PS)	75%	85%	
TTGTGTGTCTTCACCAGCTG (sugars e3 d14 e3, PS)			60%
TTGTGTGTCTTCACCAGCTG (sugars e5 d10 e5, PS)			63% and 73%
TTTCCCATGGGAGAAGATAA (sugars e5 d10 e5, PS)			55%
TTTCGGACCCACTGTGACCT (sugars e5 d10 e5, PS)			65%
TTTGCTCAGTTCTTCCAACC (sugars e5 d10 e5, PS)	72% and 70%	93% and 92%	
TTTGGAACTAATCTGCTGCT (sugars e5 d10 e5, PS)			50%
